molecular target: PFKFB3 (Homo sapiens (Human), UniProt Q16875); experiment: PFKFB3 kinase activity, Method B (ADP-Glo Kinase Assay); assay type: biochemical; details: not given
Text: (§1) The PFKFB3 (placenta form) and PFKFB4 were produced and purified to homogeneity from E. coli at Biovitrum and at Sprint Bioscience. All other reagents were purchased from commercial sources. Two independent methods have been used for determination of the kinase activity of PFKFB3 (Method A and Method B). Method B has been used for determination of the kinase activity of PFKFB4.
(§2) Method B: The kinase activity of the bi-functional enzyme is readily quantified based on the production of ADP and F-2,6-P2 from ATP and F6P. The ADP is detected with a kit, ADP-Glo™ Kinase Assay^(a-e), from Promega. The assay is a luminescent ADP detection assay that measures kinase activity by quantifying the amount of ADP produced during the kinase reaction. The assay is performed in two steps; first, after the kinase reaction, an equal volume of ADP-Glo™ Reagent is added to terminate the kinase reaction and deplete the remaining ATP. Second, the Kinase Detection Reagent is added to simultaneously convert ADP to ATP and allow the newly synthesized ATP to be measured using a luciferase/luciferine reaction. The light generated is measured using a luminescence counter (1450 MicroBeta TriLux).
(§3) The assay was performed in white 384-well microtiter plates (OptiPlate, 6007299, PerkinElmer) by consecutive additions of 0.1 μL of a test compound solution (serial diluted in DMSO from compound DMSO stock solution and dispensed by acoustic dispensing from UV-star 384-well plate 7360153, VWR), 5 μL of enzyme solution and 5 μL of a substrate (fructose-6-phosphate (F6P) and adenosine-5′-triphosphate (ATP)) containing solution. […] Four reference dose response curves, one of them being the QC compound, were included in row O1-2, P1-2, and serial diluted as the test compounds. The final concentrations of all reagents in a total assay volume of 10.1 μL per well were: • 50 mM Tris-HCl at pH 8.0 • 10 mM MgCl2 • 5 mM Na2HPO4 at pH 8.0 • 81.48 nM PFKFB3 or 145 nM PFKFB4 • 8 μM ATP • 100 μM F6P (acid treated and then neutralized to remove any contaminating F-2,6-P2; see Van Schaftingen, 1984) • 0.005% Tween-20 • 1 mM dithiothreitol (DTT) • A test compound at various concentrations or controls (final DMSO concentration 0.99%)
(§4) Enzyme, compounds and controls were pre-incubated at room temperature for 15 min before the addition of substrate solution. The enzymatic reaction was allowed to proceed for 20 min (PFKFB3) or 40 min (PFKFB4) at room temperature. The reaction was terminated by the addition of 10 μL of ADP-Glo™ Reagent to all wells and the plate was incubated for 40 min at room temperature. After addition of 20 μL Kinase Detection Reagent to all wells the plate was incubated for 30 min at room temperature, followed by measurement in 1450 MicroBeta TriLux. All plates were centrifuged after each addition (room temperature, short spin, 500 RPM, Megafuge 1.0 Heraeus Instruments).
(§5) The inhibitory potency or IC50 values of test compounds on the kinase activity of PFKFB3 or PFKFB4 were calculated using a four-parameter model (model 205) in XLfit (IDBS ActivityBase XE Runner).

Sequence of PFKFB3 (Q16875 whole entry): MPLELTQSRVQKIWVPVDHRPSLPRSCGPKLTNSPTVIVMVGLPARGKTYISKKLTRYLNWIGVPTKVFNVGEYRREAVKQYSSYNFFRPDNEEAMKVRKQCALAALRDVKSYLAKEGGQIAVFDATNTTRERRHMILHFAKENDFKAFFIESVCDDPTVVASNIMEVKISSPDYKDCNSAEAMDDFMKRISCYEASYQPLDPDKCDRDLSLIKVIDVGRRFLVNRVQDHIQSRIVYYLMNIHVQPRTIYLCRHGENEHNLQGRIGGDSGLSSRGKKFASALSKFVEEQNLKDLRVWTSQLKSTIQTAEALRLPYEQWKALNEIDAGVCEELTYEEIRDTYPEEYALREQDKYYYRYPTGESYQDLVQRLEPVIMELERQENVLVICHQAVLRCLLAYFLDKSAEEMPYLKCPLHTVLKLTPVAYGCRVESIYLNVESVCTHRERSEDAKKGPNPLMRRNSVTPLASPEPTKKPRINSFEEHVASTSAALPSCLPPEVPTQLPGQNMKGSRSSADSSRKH

Row | Compound | IC50 [nM]
1 | O=S(=O)(Nc1cccc(-c2nnn[nH]2)c1)c1ccc(-c2ccccc2)s1 [Example 60, 5-Phenyl-N-[3-(1H-tetrazol-5-yl)phenyl]thiophene-2-sulfonamide] | 1300
2 | CSc1nccc(-c2ccc(S(=O)(=O)Nc3cccc(C(=O)O)c3)s2)n1 [Example 61, 3-[[5-(2-Methylsulfanylpyrimidin-4-yl)-2-thienyl]sulfonylamino]benzoic acid] | 2240

The next lines start with the values.

Row | IC50 [nM] | Compound
3 | 620 | O=S(=O)(Nc1cccc(-c2nnn[nH]2)c1)c1ccc(-c2cc(F)cc(F)c2)s1 [Example 23, 5-(3,5-Difluorophenyl)-N-[3-(1H-tetrazol-5-yl)phenyl]thiophene-2-sulfonamide]
4 | 130 | Cc1ccc2sc(S(=O)(=O)Nc3cccc(-c4nnn[nH]4)c3)c(C)c2c1 [Example 33, 3,5-Dimethyl-N-[3-(1H-tetrazol-5-yl)phenyl]-1-benzothiophene-2-sulfonamide]
5 | 280 | Cc1c(S(=O)(=O)Nc2cccc(-c3nnn[nH]3)c2)sc2ccccc12 [Example 39, 3-Methyl-N-[3-(1H-tetrazol-5-yl)phenyl]-1-benzothiophene-2-sulfonamide]

system: PANC-1 cells; experiment: Quantification of F-2,6-P2 in PANC-1 cells; assay type: cell-based; details: Homo sapiens, PANC-1; read-out: IC50 based on quantification of F-2,6-P2
Text: The relative kinase (formation) and phosphatase (degradation) activities of the bi-functional enzymes PFKFB3 and PFKFB4 control the intracellular levels of the regulator F-2,6-P2, which acts as an allosteric activator of glycolysis. The levels of F-2,6-P2 have been determined in three different cancer cell lines (MCF-7, PANC-1 and NUGC-3) using the van Shaftingen assay. The assay protocols described under “Methods for measurement of enzymatic activity of PFKFB3 and PFKFB4, Method A” have been adapted for the measurement of the inhibitory effect of compounds on the kinase activity of the various isoforms of the bifunctional enzyme (endogenously expressed) in the different cell lines. The modifications are described in the protocol below. All reagents were purchased from commercial sources or prepared inhouse.
Cell Line B (PANC-1, Human Pancreatic Carcinoma Cell Line)
• Cells: PANC-1 (ATCC-CRL-1469). Lot. no: 58564651. • Growth medium: Dulbecco's Modified Eagle's Medium, DMEM, ATCC-30-2002 10% FBS, Invitrogen, 10106-169
Cells were seeded at a concentration of 250 000 cells/mL in 100 μL growth medium (25 000 cells/well)
Starvation medium: DMEM/F12 without phenol red and glucose free, SVA, 991373 0.25% FBS, Invitrogen, 10106-169
Induction medium: DMEM/F12 without phenol red and glucose free, SVA, 991373 0.25% FBS, Invitrogen, 10106-169 (same as starvation medium)
Cells were seeded in 96-well Corning Costar tissue culture plates (CLS3595, Sigma-Aldrich) using the concentrations specified above for the three different cell lines A-C and incubated over night at 37° C. and 5% CO2. Row A was left empty. Next day the growth medium was discarded and replaced with 100 μL starvation medium. The plates were incubated for 18 h at 37° C. and 5% CO2. After 18 h of starvation the cells were induced with 100 μL compound or control solutions. Compounds were either tested in two concentrations (50 μM and 10 μM) or in dose response curves starting from 50 μM and the final DMSO concentration in assay plates was 0.5%. Also a dose response curve of a reference inhibitor was included in row H on each plate. All compounds were tested in duplicate plates. Compounds (in 96 well CLS 3365, Sigma-Aldrich) were serial diluted in DMSO from 10 mM compound DMSO stock solutions with Janus (automated liquid handling workstation from PerkinElmer). 5 μL were transferred to a Greiner deep well plate (736-0155, VWR) with 495 μL starvation medium. The final start concentration of compounds in the dilution plate was 100 μM, 1% DMSO. For compounds tested as single points, 10 mM compound solutions were diluted five fold in DMSO to 2 mM, followed by the transfer of 5 μL to separate dilution plates with 495 μL starvation medium. The final concentration of compounds in these dilution plates were 100 or 20 μM, respectively, and final concentration of DMSO was 1%. The plates were incubated at 37° C. and 5% CO2 for 1 h, followed by the addition of 10 μL 20 mM D-glucose in starvation medium. Controls, with and without 1 mM glucose, were included in row B. The final assay volume was 210 μL per well. After 2 h of incubation at 37° C. and 5% CO2, supernatants were discarded and the cells were lysed by the addition of 25 μL 250 mM NaOH. The plates were incubated at 37° C. and 5% CO2 for 5 min followed by an addition of 75 μL MilliQ dH2O. The supernatants were further diluted with 210 μL MilliQ dH2O to a final concentration of 20 mM NaOH. 200 μL were transferred to NUNC 96-well plates (7322661, VWR) and the plates were sealed and stored at −20° C. until analysis.
The amount of F-2,6-P2 was quantified based on the coupled enzymatic reaction described by Van Schaftingen. If necessary the samples were further diluted in 20 mM NaOH before quantification. Plates stored at −20° C. were thawed and the F-2,6-P2 quantification was initiated by transferring 40 μL from each well of the NUNC plate to the corresponding position in a trans-parent 96-well SpectraPlate-MB (6005649, PerkinElmer). […]

Row | IC50 [nM] | Compound
6 | 11000 | COc1ccccc1-c1ccc(S(=O)(=O)Nc2cccc(-c3nnn[nH]3)c2)s1 [Example 24, 5-(2-Methoxyphenyl)-N-[3-(1H-tetrazol-5-yl)phenyl]thiophene-2-sulfonamide]
7 | 13800 | Cc1ccc(-c2ccc(S(=O)(=O)Nc3cccc(-c4nnn[nH]4)c3)s2)cc1 [Example 27, 5-(4-Methylphenyl)-N-[3-(1H-tetrazol-5-yl)phenyl]thiophene-2-sulfonamide]

molecular target: PFKFB4 (Homo sapiens (Human), UniProt Q16877); experiment: PFKFB4 kinase activity, Method B (ADP-Glo Kinase Assay); assay type: biochemical; details: not given
Sequence (Q16877 whole entry): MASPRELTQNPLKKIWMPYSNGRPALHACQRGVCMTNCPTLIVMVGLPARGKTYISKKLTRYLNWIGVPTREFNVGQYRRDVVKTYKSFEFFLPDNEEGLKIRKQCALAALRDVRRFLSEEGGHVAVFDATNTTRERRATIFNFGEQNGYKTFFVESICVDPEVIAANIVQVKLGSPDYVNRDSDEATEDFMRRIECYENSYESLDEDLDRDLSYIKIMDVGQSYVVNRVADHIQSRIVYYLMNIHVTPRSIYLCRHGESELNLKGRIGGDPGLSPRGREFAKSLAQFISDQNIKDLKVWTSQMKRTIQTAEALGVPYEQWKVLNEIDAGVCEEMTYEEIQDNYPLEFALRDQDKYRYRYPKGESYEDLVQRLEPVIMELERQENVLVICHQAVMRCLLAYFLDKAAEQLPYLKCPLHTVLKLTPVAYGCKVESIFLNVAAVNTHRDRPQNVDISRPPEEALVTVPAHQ
Text: as §1, §2, §3, §4, §5

Row | Compound | IC50 [nM]
8 | Cc1c(S(=O)(=O)Nc2ncc(C(=O)O)s2)sc2ccc(C(C)C)cc12 [Example 7, 2-{[(5-Isopropyl-3-methyl-1-benzothien-2-yl)sulfonyl]amino}-1,3-thiazole-5-carboxylic acid] | 100
9 | O=S(=O)(Nc1cccc(-c2nnn[nH]2)c1)c1cccc(-c2ccccc2)c1 [Example 16, N-[3-(1H-Tetrazol-5-yl)phenyl]biphenyl-3-sulfonamide] | 390
10 | CSc1nccc(-c2ccc(S(=O)(=O)Nc3cccc(-c4nnn[nH]4)c3)s2)n1 [Example 21, 5-[2-(Methylthio)pyrimidin-4-yl]-N-[3-(1H-tetrazol-5-yl)phenyl]thiophene-2-sulfonamide] | 420
11 | COc1ccccc1-c1ccc(S(=O)(=O)Nc2cccc(-c3nnn[nH]3)c2)s1 [Example 24, 5-(2-Methoxyphenyl)-N-[3-(1H-tetrazol-5-yl)phenyl]thiophene-2-sulfonamide] | 660
12 | COc1cccc2c(C)c(S(=O)(=O)Nc3cccc(C(=O)O)c3)sc12 [Example 42, 3-{[(7-Methoxy-3-methyl-1-benzothien-2-yl)sulfonyl]amino}benzoic acid] | 420
13 | Cc1c(S(=O)(=O)Nc2cccc(C(=O)O)c2)sc2c(Cl)cccc12 [Example 44, 3-{[(7-Chloro-3-methyl-1-benzothien-2-yl)sulfonyl]amino}benzoic acid] | 200
14 | COc1ccc(-c2ccc(S(=O)(=O)Nc3cccc(-c4nnn[nH]4)c3)cc2)cc1 [Example 85, 4′-Methoxy-N-[3-(1H-tetrazol-5-yl)phenyl]biphenyl-4-sulfonamide] | 3720
15 | Cc1c(S(=O)(=O)Nc2cccc(C(=O)O)c2O)sc2ccc(Cl)cc12 [Example 134, 3-{[(5-Chloro-3-methyl-1-benzothiophen-2-yl)sulfonyl]amino}-2-hydroxybenzoic acid] | 180

Second part, the molecule after the results:

Row | IC50 [nM] | Compound
16 | 510 | O=S(=O)(Nc1cccc(-c2nnn[nH]2)c1)c1c(Cl)cc(C(F)(F)F)cc1Cl [Example 18, 2,6-Dichloro-N-[3-(1H-tetrazol-5-yl)phenyl]-4-(trifluoromethyl)benzenesulfonamide]
17 | 750 | O=S(=O)(Nc1cccc(-c2nnn[nH]2)c1)c1ccc(-c2ccccc2Cl)s1 [Example 26, 5-(2-Chlorophenyl)-N-[3-(1H-tetrazol-5-yl)phenyl]thiophene-2-sulfonamide]
18 | 480 | Cc1ccc(-c2ccc(S(=O)(=O)Nc3cccc(-c4nnn[nH]4)c3)s2)cc1 [Example 27, 5-(4-Methylphenyl)-N-[3-(1H-tetrazol-5-yl)phenyl]thiophene-2-sulfonamide]
19 | 140 | Cc1ccc2sc(S(=O)(=O)Nc3cccc(-c4nnn[nH]4)c3)cc2c1 [Example 40, 5-Methyl-N-[3-(1H-tetrazol-5-yl)phenyl]-1-benzothiophene-2-sulfonamide]
20 | 170 | Cc1c(S(=O)(=O)Nc2cccc(-c3nnn[nH]3)c2)sc2ccc(F)cc12 [Example 43, 5-Fluoro-3-methyl-N-[3-(1H-tetrazol-5-yl)phenyl]-1-benzothiophene-2-sulfonamide]
21 | 1830 | O=S(=O)(Nc1cccc(-c2nnn[nH]2)c1)c1ccc(Br)cc1F [Example 57, 4-Bromo-2-fluoro-N-[3-(1H-tetrazol-5-yl)phenyl]benzenesulfonamide]
22 | 600 | O=S(=O)(Nc1cccc(-c2nnn[nH]2)c1)c1ccc(-c2ccc(F)cc2F)s1 [Example 101, 5-(2,4-Difluorophenyl)-N-[3-(1H-tetrazol-5-yl)phenyl]thiophene-2-sulfonamide]
23 | 660 | O=S(=O)(Nc1cccc(-c2nnn[nH]2)c1)c1ccc(-c2ccc(F)c(Cl)c2)s1 [Example 102, 5-(3-Chloro-4-fluorophenyl)-N-[3-(1H-tetrazol-5-yl)phenyl]thiophene-2-sulfonamide]
